Measured values reported in publication PMC9496321, “6-Furopyridine Hexamethylene Amiloride Is a Non-Selective P2X7 Receptor Antagonist” (Biomolecules, 2022).

What was measured:
P2X7 = molecular target: T1, P2X7 (Homo sapiens, UniProt Q99572); experiment: Plate-based flow cytometric YO-PRO-1 dye uptake compound screen in RPMI8226 cells; type: cell-based; parameters: endogenous in cells; host or cells: RPMI8226 cells; settings: RPMI8226 cells, plate-based screen
T1 sequence (Q99572 1-595): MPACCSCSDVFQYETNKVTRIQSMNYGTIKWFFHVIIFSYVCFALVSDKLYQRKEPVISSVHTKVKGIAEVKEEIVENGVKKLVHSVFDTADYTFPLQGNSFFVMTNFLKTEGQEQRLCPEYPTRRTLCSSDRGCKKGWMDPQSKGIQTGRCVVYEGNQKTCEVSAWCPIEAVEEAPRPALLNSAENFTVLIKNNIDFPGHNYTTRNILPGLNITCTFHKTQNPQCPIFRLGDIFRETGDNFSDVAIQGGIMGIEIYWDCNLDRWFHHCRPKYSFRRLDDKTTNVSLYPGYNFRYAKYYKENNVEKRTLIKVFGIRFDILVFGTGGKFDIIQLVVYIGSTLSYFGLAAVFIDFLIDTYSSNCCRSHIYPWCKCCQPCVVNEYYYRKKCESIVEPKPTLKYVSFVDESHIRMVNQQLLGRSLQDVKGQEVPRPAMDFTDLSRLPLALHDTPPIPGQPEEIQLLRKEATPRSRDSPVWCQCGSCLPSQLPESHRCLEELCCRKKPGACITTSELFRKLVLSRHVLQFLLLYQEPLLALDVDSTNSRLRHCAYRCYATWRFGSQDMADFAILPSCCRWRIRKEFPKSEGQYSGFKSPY
Description: RPMI8226 cells were washed thrice with low-divalent medium (LDM) (145 mM NaCl, 2 mM KCl, 0.2 mM CaCl2, 13 mM D-glucose and 10 mM HEPES, pH 7.5) and 1 × 10^5 cells were added to each well of a 96-well flat-bottomed plate. Amiloride derivatives, at 10 μM (final concentration 5 μM) or vehicle (DMSO) were added, and plates pre-incubated (37 °C, 15 min). […] Wells were washed twice with LDM (300× g, 5 min) and cells were resuspended in LDM. Data was acquired with an Attune NxT Flow Cytometer an Autosampler (Thermo Fisher Scientific). Mean fluorescent intensity (MFI) of YO-PRO-1^+ uptake was determined using FlowJo.

hP2X4 = molecular target: T2, hP2X4 (Homo sapiens, UniProt Q99571); experiment: Fura-2AM Ca2+ response assay in HEK-hP2X4 cells; type: cell-based
T2 construct: expressed in transfected cells; host or cells: HEK293 cells, transient transfection
T2 sequence (Q99571 1-388): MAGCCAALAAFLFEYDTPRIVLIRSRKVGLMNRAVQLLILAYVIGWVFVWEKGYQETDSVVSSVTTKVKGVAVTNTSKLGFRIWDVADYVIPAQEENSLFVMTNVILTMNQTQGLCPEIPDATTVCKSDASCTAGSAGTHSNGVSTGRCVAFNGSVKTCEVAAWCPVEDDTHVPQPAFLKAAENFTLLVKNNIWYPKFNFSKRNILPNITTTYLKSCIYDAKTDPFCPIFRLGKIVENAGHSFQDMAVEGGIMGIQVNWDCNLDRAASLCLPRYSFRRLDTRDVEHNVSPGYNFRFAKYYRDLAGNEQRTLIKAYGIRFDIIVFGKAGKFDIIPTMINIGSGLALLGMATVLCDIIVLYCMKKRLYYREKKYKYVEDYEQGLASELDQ
Description: HEK293 cells were plated at 3.5 × 10^5 cells/well in 2 mL of complete DMEM/F12 medium and incubated (37 °C, 95% air/5% CO2, overnight). Cells were transfected with mP2X7-GFP (HEK-mP2X7), cP2X7-GFP (HEK-cP2X7) or hP2X4-EmGFP (HEK-hP2X4) plasmids, or mock transfected with an equivalent volume of sterile Milli-Q water (Merck Millipore, Burlington, NJ, USA), using Lipofectamine 3000 according to the manufacturer’s instructions. Cells were used for assays 48 h post-transfection. To determine transfection efficiency, cells were washed twice with D-PBS and data collected with an LSR Fortessa X-20 flow cytometer (BD Biosciences). The proportion of GFP positive cells was determined using FlowJo software v8.7.1 (BD Biosciences).
Ca^2+ response assays were conducted as described. […] Fura-2 fluorescence at 510 nm was measured every 5 s using a FlexStation 3 (Molecular Devices, San Jose, CA, USA). […] Relative changes in intracellular Ca^2+ were calculated using the ratio of Fura-2AM fluorescence at 510 nm following excitation at 340 nm and 380 nm (F340nm/380nm). […] To determine relative P2X-mediated Ca^2+ responses, the area under the curve from 100 to 180 s was calculated with GraphPad Prism. To determine P2Y-mediated Ca^2+ responses the area under the curve from 30 to 100 s was calculated. In both cases, ATP-induced responses were calculated by subtracting the corresponding basal response. […]

human uPA = test system: human uPA; parameters: method as in PMID 33804289; settings: cited from earlier work

Structure (SMILES) | EC50 (P2X7) [µM] | inhibition at 100 µM (hP2X4) [%] | IC50 (hP2X4; read-out: IC50, hP2X4-mediated Ca2+ flux) [µM] | inhibition of human uPA (human uPA)
Nc1ncnc2c1ncn2[C@@H]1O[C@H](COP(=O)(O)OP(=O)(O)OP(=O)(O)O)[C@@H](O)[C@H]1O [ATP, adenosine 5′-triphosphate] | ~250 |  |  | 
N=C(N)NC(=O)c1nc(-c2cc3cnccc3o2)c(N2CCCCCC2)nc1N [6-FPHMA, 6-furopyridine-substituted 5-(N,N-hexamethylene) amiloride] |  | 100 | 3.95 ± 0.19 | inhibit
